From patent publication EP4793271A1, “NEUROPROTECTIVE AGENT” (National Center of Neurology and Psychiatry, priority 2023, dated 2025)
pIC50: −log10 of the molar value.

Key:
[1] = target: T1, nicotinamide phosphoribosyl transferase (NAMPT) (Homo sapiens, UniProt P43490); experiment: NAMPT activity measurement (NMN fluorescence detection); type: biochemical; details: NAMPT recombinant protein, 10 µM Nam; for pIC50: read-out: Evaluation on NAMPT inhibitory
T1 construct: purchased Medical & Biological Laboratories Co., Ltd. (MBL)
Description: The compound of the present invention was evaluated for the ability to influence the activity of nicotinamide phosphoribosyl transferase (NAMPT) which is an enzyme that metabolizes nicotinamide (Nam), not the target SARM1.
The enzymatic reaction of NAMPT was carried out by adding NAMPT recombinant protein (manufactured by Medical & Biological Laboratories Co., Ltd. (MBL)) to a reaction solution containing the substrate Nam, phosphoribosylpyrophosphate (PRPP), ATP, and the like (composition: […] (pH = 7.4), 2 µM ATP, 0.5 µM PRPP, 0.02% BSA, 2 µM DTT, 1.2 µM MgCl2, and 10 µM Nam). The amount of the reaction product NMN was detected by detecting the fluorescent signal of a fluorescent substance obtained through the reaction of 2-acetylbenzofuran with NMN using SpectraMax M2 (Molecular Devices) (excitation: 421 nm, fluorescence: 480 nm) (Moriya et al, Chemical Communications 2013, 49 11500). The test compound was added at final concentrations of 10 µM, 3 µM, 1 µM, 300 nM, 100 nM, 30 nM, 10 nM, and 3 nM to the NMN synthesis reaction system described above. The NMN-derived fluorescent signal was normalized against a control group and plotted as the function of the test compound concentrations, and the compound was evaluated for its NAMPT inhibitory effect by calculating IC50.
The IC50 value was evaluated as ∘ for ≥1 µM and as Δ for ≥0.1 µM.

[2] = tested on: primary cultured cells of mouse fetus-derived dorsal root ganglia (DRGs); experiment: Suppression of axonal degeneration after axotomy in DRG explant culture; type: cell-based; details: minimum concentration at which axonal degeneration was suppressed (DI 0.3 or less), 24 hours after axotomy; for minimal effective concentration: Mus musculus, read-out: Evaluation on protection against degeneration
Description: The compound of the present invention was studied for its protective effect against axonal injury using primary cultured cells of mouse fetus-derived dorsal root ganglia (DRGs).
DRGs were collected from a fetus derived from an ICR mouse (13.5 days of pregnancy). DRGs were cultured using a plate coated by incubation with 0.1 mg/mL poly-L-lysine at 4°C for 24 hours or longer, washing with PBS, and then incubation with 2.5 µg/mL Cultrex Mouse Laminin I at 37°C for 4 to 6 hours.
One of DRGs collected was plated to each well of the coated 24-well plate. The DRG was cultured in a nicotinamide-free medium for neuron (supplemented with 10% FBS, 1 mM glutamine, 50 ng/mL NGF2.5S, and penicillin-streptomycin) for 24 hours at maximum from the start of culture and then cultured in a nicotinamide-free medium for neuron (supplemented with 2% MACS NeuroBrew-21, 50 ng/mL NGF2.5S, 1% Glutamax, 20 µM uridine, 20 µM 5-fluoro-2'-deoxyuridine, and penicillin-streptomycin) for 7 to 8 days.
The nicotinamide-free medium for neuron was prepared so as to have the same constituents as those of the composition published in a previously reported paper (Brewer et al., J. Neuroscience Research 35: 567-576) except for nicotinamide with reference to this composition.
The test compound is dissolved in DMSO and added to cells such that the final concentration of DMSO is 0.1% (1000-fold dilution). 10 mM, 1 mM, 100 µM, 10 µM, 1 µM, and 100 nM samples of the test compound are prepared and added at a 1000-fold dilution to cells.
Axotomy was carried out by scooping out a cell body portion of the cultured DRG with a chip for a micropipette. The test compound was added at the following concentrations (final concentration: 10 µM, 1 µM, 100 nM, 10 nM, 1 nM, and 100 pM) within 30 minutes after axotomy. The compound was evaluated for its protective effect against axonal degeneration by imaging (Leica DMIL microscope, 20× objective lens) the state of neurites 24 hours after axotomy and evaluating the degree of degeneration. The degree of degeneration was quantified using a program uniquely developed using the R language. A degeneration index (DI) was used as an indicator for the degree of degeneration, and the ratio of the area of a fragmented axon to the total area of axons was calculated as defined in the equation of Expression 2. Suppressed axonal degeneration was evaluated when the value of DI was 0.3 or less. The minimum concentration at which axonal degeneration was suppressed was determined for each compound. Degeneratioin index (DI) = (Degenerated axons)/(All axons) [formula]
The axonal protective activity was evaluated as A ≤ 0.01 µM, 0.01 µM < B ≤ 0.1 µM, and 0.1 µM < C ≤ 1 µM depending on the minimum concentration at which axonal degeneration was suppressed.

hSARM1 = target: T2, hSARM1 (Homo sapiens, UniProt Q6SZW1); experiment: Human SARM1 activity measurement in HEK293 cells transiently transfected with ΔN-hSARM1 (PC6 fluorescent probe); type: cell-based; design: expressed in transfected cells; host or cells: HEK293, pcDNA3 expression vector; details: inhibition rate; compound 30 µM; PC6 50 µM; HEK293 cells expressing ΔN-hSARM1; approximately 48 hours from transfection; read-out: Evaluation on hSARM1 inhibitory
T2 sequence (Q6SZW1 28-724): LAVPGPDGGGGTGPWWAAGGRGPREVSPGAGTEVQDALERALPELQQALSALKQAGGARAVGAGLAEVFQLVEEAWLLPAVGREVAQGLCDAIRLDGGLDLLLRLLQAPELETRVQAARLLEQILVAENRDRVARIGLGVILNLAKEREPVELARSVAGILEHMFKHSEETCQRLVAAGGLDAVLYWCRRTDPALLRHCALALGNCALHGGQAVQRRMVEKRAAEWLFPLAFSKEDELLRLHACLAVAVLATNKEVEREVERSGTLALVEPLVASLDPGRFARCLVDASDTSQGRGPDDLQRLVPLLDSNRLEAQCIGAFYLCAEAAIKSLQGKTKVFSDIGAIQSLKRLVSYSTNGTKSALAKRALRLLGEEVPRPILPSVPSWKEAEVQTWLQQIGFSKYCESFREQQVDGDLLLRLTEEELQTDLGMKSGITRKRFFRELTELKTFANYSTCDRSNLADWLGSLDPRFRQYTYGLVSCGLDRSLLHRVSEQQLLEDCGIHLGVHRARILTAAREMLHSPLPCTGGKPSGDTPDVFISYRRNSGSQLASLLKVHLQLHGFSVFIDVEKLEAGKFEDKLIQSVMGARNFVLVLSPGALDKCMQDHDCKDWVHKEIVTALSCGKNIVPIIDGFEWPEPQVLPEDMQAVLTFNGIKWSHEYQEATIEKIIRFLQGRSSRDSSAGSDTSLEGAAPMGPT
Description: HEK293 cells cultured in a prepared medium of nicotinamide-free DMEM (Dulbecco's modified Eagle medium) supplemented with 10% FBS (BioSera), a 1% penicillin-streptomycin solution (FUJIFILM Wako Pure Chemical Corp.), 5 μM nicotinamide were inoculated at approximately 50,000 cells/well to a 96-well microplate, and the cells were cultured at 37°C under 5% CO2, transiently transfected on the next day with a pcDNA3 expression vector containing a DNA sequence (SEQ ID NO: 1) deficient in a mitochondrial targeting sequence encoded by an N-terminal 78-base sequence in cDNA encoding human sterile α- and armadillo-motif-containing protein (hSARM1) using PEI MAX(R) reagent (PolySciences Inc.), and forced to express ΔN-hSARM1 (SEQ ID NO: 2). Approximately 8 hours later, PC6, which reacts as a substrate of SARM1-specific base exchange reaction and functions as a fluorescent probe, was added thereto at a final concentration of 50 μM, and intracellular hSARM1 activity was measured (Li et al, eLife 2021 10: e67381). A compound for inhibitory activity evaluation was added at a final concentration of 30 μM at the same time with PC6, while dimethyl sulfoxide (Nacalai Tesque Inc.) was added to samples of a control group at the same time with PC6. The cells were incubated at 37°C under 5% CO2 for approximately 48 hours from transfection, followed by fluorescent signal measurement using SpectraMax M2 (Molecular Devices) (excitation: 405 nm, fluorescence: 525 nm, fluorescence cutoff: 515 nm). Results of this screening are reported as an inhibition rate (%) relative to a negative control defined as follows by using fluorescence intensity measured from a control group without transfection with ΔN-hSARM1 as a background whereas using fluorescence intensity measured from a control group transfected with ΔN-hSARM1 as the negative control. Inhibitory rate (%) = 100-(([…]-Background))/((Signalofthenegativecontrol-Background)) × 100 [formula] The nicotinamide-free medium was prepared so as to have the same composition as that of DMEM having known composition which is generally used in the art except for nicotinamide. […]

T1 sequence (P43490 whole entry, species assumed): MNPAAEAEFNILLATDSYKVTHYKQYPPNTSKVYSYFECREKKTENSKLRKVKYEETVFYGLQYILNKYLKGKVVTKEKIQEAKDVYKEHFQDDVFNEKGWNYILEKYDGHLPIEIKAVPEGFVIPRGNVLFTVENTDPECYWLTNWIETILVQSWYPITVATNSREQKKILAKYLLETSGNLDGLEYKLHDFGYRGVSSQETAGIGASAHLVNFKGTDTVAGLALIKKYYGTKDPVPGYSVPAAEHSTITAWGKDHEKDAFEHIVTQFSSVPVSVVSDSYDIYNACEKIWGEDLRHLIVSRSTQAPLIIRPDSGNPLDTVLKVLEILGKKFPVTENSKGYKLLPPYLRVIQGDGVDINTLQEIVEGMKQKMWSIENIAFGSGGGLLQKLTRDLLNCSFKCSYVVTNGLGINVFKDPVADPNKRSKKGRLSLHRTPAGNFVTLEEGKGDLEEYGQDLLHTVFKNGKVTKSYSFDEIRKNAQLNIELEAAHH

Row | Evaluation on NAMPT inhibitory [1] | inhibition at 30 µM (hSARM1) [%] | pIC50 [1] | Compound | minimal effective concentration [2] [µM] | Evaluation on protection against degeneration [2]
1 | ○ |  |  | COC(=O)C(CCCNC(=O)c1cccnc1)NC(=O)c1cccnc1 (stereo not shown) [compound 48] | 0.1 to 1 | 
2 | ○ |  |  | O=C(NCCCC(NC(=O)c1cccnc1)C(=O)O)c1cccnc1 (stereo not shown) [compound 49] |  | 
3 | ○ |  |  | NC(=O)C(CCCNC(=O)c1cccnc1)NC(=O)c1cccnc1 (stereo not shown) [compound 50] |  | 
4 | ○ |  |  | CCNC(=O)C(CCCNC(=O)c1cccnc1)NC(=O)c1cccnc1 (stereo not shown) [compound 51] |  | 
5 | ○ | > 10 |  | O=C(/C=C/c1cccnc1)NCc1ccccc1NC(=O)/C=C/c1cccnc1 [compound 60] |  | 
6 | ○ | > 10 |  | O=C(NCc1ccc(NS(=O)(=O)c2ccccc2)nc1)c1cccnc1 [compound 79] |  | 
7 | ○ | > 10 |  | [N-]=[N+]=NCc1cccc(CNC(=O)c2cccnc2)n1 [compound 90] |  | 
8 | ○ | > 10 |  | O=C(NCc1cccc(CN2Cc3ccccc3C2=O)n1)c1cccnc1 [compound 92] |  | 
9 | ○ |  |  | O=C(Nc1ccccc1CCc1ccccc1NC(=O)c1cccnc1)c1cccnc1 [compound 100] | 0.01 to 0.1 | 
10 | ○ |  |  | CN(CCCCCCN(C)C(=O)c1cccnc1)C(=O)c1cccnc1 [compound 102] | ≤ 0.01 | 
11 | ○ |  |  | NCCOCCOCCNC(=O)c1cccnc1 [compound 107] | ≤ 0.01 | 

The next lines start with the compound.

Row | Compound | Evaluation on NAMPT inhibitory [1] | inhibition at 30 µM (hSARM1) [%] | pIC50 [1] | minimal effective concentration [2] [µM] | Evaluation on protection against degeneration [2]
12 | O=C(NCc1ccc(NC(=O)c2ccccc2)c(Cl)c1)c1cccnc1 [Compound 111] | ○ | > 10 |  | ≤ 0.01 | 
13 | O=C(NCc1ccc(NC(=O)c2cccnc2)c(Cl)c1)c1cccnc1 [Compound 112] | ○ | > 10 |  |  | B (0.01 µM < B ≤ 0.1 µM)
14 | O=C(NCc1ccc(NC(=O)C2CCCCC2)nc1)c1cccnc1 [Compound 113] | ○ | > 75 |  | ≤ 0.01 | 
15 | O=C(NCc1ccc(NC(=O)C2CCOCC2)nc1)c1cccnc1 [Compound 114] | ○ | > 75 |  | ≤ 0.01 | 
16 | O=C(CCc1ccccc1)Nc1ccc(CNC(=O)c2cccnc2)cn1 [Compound 115] | ○ | > 75 |  | ≤ 0.01 | 
17 | O=C(NCc1ccc(NC(=O)c2cccc(F)c2)nc1)c1cccnc1 [Compound 116] | ○ | > 75 |  | ≤ 0.01 | 
18 | O=C(NCc1ccc(NC(=O)c2cccc3ccccc23)nc1)c1cccnc1 [Compound 121] |  |  | ≤ 7.00 | 0.01 to 0.1 | 
19 | NCc1cccc(CNC(=O)c2cccnc2)n1 [Compound 148] | ○ |  |  | 0.1 to 1 | 
20 | O=C(NCc1cccc(CNC(=O)c2cc(F)cc(F)c2)n1)c1cccnc1 [Compound 152] | ○ | > 25 |  |  | 
21 | CN(C)c1ccc(/C=C/C(=O)Nc2ccc(CNC(=O)c3cccnc3)cn2)cc1 [Compound 181] |  |  | ≤ 7.00 | ≤ 0.01 | 
22 | O=C(NCCCCCC1CCN(CCO)CC1)c1cccnc1 [compound 2] |  |  | ≤ 7.00 | ≤ 0.01 | 
23 | O=C(NCCCCCCCCOCCOc1ccc([N+](=O)[O-])c2nonc12)c1cccnc1 [compound 5] |  |  | ≤ 7.00 | ≤ 0.01 | 
24 | O=C(NCCN(CCNC(=O)c1cccnc1)C(=O)c1cccnc1)c1cccnc1 [compound 36] | ○ | > 10 |  |  | 
25 | COC(=O)C(CCCCNC(=O)c1cccnc1)NC(=O)c1cccnc1 (stereo not shown) [compound 44] | ○ |  |  |  | 
26 | O=C(NCCCCC(NC(=O)c1cccnc1)C(=O)O)c1cccnc1 (stereo not shown) [compound 45] | ○ |  |  |  | 
27 | NC(=O)C(CCCCNC(=O)c1cccnc1)NC(=O)c1cccnc1 (stereo not shown) [compound 46] | ○ |  |  |  | 
28 | CCNC(=O)C(CCCCNC(=O)c1cccnc1)NC(=O)c1cccnc1 (stereo not shown) [compound 47] | ○ |  |  |  | 
